Our source for the TGI values is PubChem BioAssay (NCI).

The structures appear in SMILES notation.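 Test compounds were applied to cells in 96-well plates for 48 hours at 5 doses. TGI: total growth inhibition.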 Where a SMILES comes first, the peptide text is derived from it. [ ]: non-standard residue; d: D form. The star is where a group is joined. ξ: configuration not given here. ξD = NC(CC(=O)O)C(=O)O; Boc = CC(C)(C)OC(=O)*; Aib = CC(C)(N)C(=O)O; OBn = c1ccc(CO*)cc1 Bounds are passed on as bounds.

Among the test systems are SW-620 colon; M14 melanoma; U251 CNS; A498 renal; HCT-116 colon; UO-31 renal; SK-MEL-28 melanoma; SF-295 CNS; T-47D breast; A549 NSCLC; OVCAR-5 ovarian; HCC-2998 colon; MOLT-4 leukemia.
Test in all cases: growth of human tumour cells (NCI), 48 h

`Cc1nc(C(N)=S)sc1C(=O)CC(=O)C(=O)Nc1ccc(Br)cc1`: the TGI in the test with SW-620 colon, in the test with M14 melanoma, with U251 CNS, in the test with A498 renal, in the test on HCT-116 colon and in the test with UO-31 renal was above 100 µM each time. Besides, the TGI in the test with SK-MEL-28 melanoma, with SF-295 CNS, with T-47D breast, in the test with A549 NSCLC and in the test with OVCAR-5 ovarian was above 100 µM in each case.
`COC(=O)CN(CC(=O)NCCNC(=O)OC(C)(C)C)C1CCCCC1N(CC(=O)OC)CC(=O)OC` (stereo not drawn): the TGI in the test with SW-620 colon, in the test with U251 CNS, in the test with A498 renal, in the test with HCT-116 colon, in the test with UO-31 renal and in the test on SK-MEL-28 melanoma was above 100 µM throughout. The TGI in the test with SF-295 CNS, in the test on T-47D breast, in the test with HCC-2998 colon, in the test on A549 NSCLC, with OVCAR-5 ovarian and with MOLT-4 leukemia was above 100 µM throughout.
`CC(C)(C)OC(=O)NC(CC(=O)OCc1ccccc1)C(=O)NC(C)(C)C(N)=O` (stereo not drawn) (Boc-[ξD](OBn)-[Aib]-NH2): the TGI with SW-620 colon, in the test on M14 melanoma, with U251 CNS, in the test with A498 renal, in the test with HCT-116 colon and with UO-31 renal was above 100 µM in each case. In addition, the TGI in the test on SK-MEL-28 melanoma, in the test on SF-295 CNS, in the test on T-47D breast, in the test on A549 NSCLC, in the test on OVCAR-5 ovarian and in the test on MOLT-4 leukemia was above 100 µM each time.
Turning to `CC(C(=O)NCNC(=O)c1ccccc1)C(=O)Nc1ccccc1` (stereo not drawn), the TGI with SW-620 colon, with M14 melanoma, with U251 CNS, with HCT-116 colon, in the test with UO-31 renal and in the test on SF-295 CNS was above 100 µM in each case. Also, the TGI in the test on T-47D breast, in the test on A549 NSCLC and in the test on OVCAR-5 ovarian was above 100 µM throughout.
Consider `COc1c(Sc2c(SCSc3cnc4ccccc4c3Sc3cnc4ccccc4c3OC)cnc3ccccc23)cnc2ccccc12`, for which the TGI in the test with SW-620 colon, with M14 melanoma, in the test on U251 CNS, in the test on HCT-116 colon, in the test on UO-31 renal and in the test on SK-MEL-28 melanoma was above 100 µM throughout. For the same compound, the TGI in the test on SF-295 CNS, with T-47D breast, in the test on HCC-2998 colon, in the test with A549 NSCLC, in the test with OVCAR-5 ovarian and in the test with MOLT-4 leukemia was above 100 µM throughout.
As for `O=S(Cc1ccccc1)c1ccccc1Cn1cccc1` (stereo not drawn), the TGI in the test on SW-620 colon, in the test on M14 melanoma, with U251 CNS, in the test with HCT-116 colon, in the test with UO-31 renal and in the test on SK-MEL-28 melanoma was above 100 µM throughout. The TGI in the test on SF-295 CNS, with T-47D breast, in the test on HCC-2998 colon, in the test with A549 NSCLC and with OVCAR-5 ovarian was above 100 µM in each case.
`CCCC(=O)OCC1OC(n2cc(F)c(=O)[nH]c2=O)C(F)C1O` (stereo not drawn): the TGI in the test on SW-620 colon, with M14 melanoma, in the test on U251 CNS, in the test with HCT-116 colon, in the test on UO-31 renal and in the test with SK-MEL-28 melanoma was above 100 µM each time. Moreover, the TGI in the test on SF-295 CNS, with T-47D breast, in the test with HCC-2998 colon, with A549 NSCLC, in the test on OVCAR-5 ovarian and in the test on MOLT-4 leukemia was above 100 µM each time.
On to `O=C(C[C@@H]1CCCN2CCCC[C@H]12)N1c2ccccc2Sc2ccc(Cl)cc21`, for which the TGI in the test on SW-620 colon is 26.8 µM; in the test on M14 melanoma, 17.9 µM; in the test on U251 CNS, 24.4 µM; with HCT-116 colon, 29.5 µM; with UO-31 renal, 25.9 µM; with SK-MEL-28 melanoma it was 26.3 µM. In addition, the TGI in the test with SF-295 CNS amounted to 36.7 µM; with T-47D breast, 39.5 µM; in the test on A549 NSCLC, 30.9 µM; in the test on OVCAR-5 ovarian, 26.4 µM; in the test on MOLT-4 leukemia, 30 µM.
`Cc1n[nH]c(=O)n1C1CC1`: the TGI with SW-620 colon, with M14 melanoma, in the test with U251 CNS, in the test with HCT-116 colon, in the test with UO-31 renal and in the test with SK-MEL-28 melanoma was above 100 µM in each case. Further, the TGI in the test with SF-295 CNS, in the test with T-47D breast, in the test on HCC-2998 colon, in the test with A549 NSCLC, with OVCAR-5 ovarian and with MOLT-4 leukemia was above 100 µM in each case.
Turning to `Cn1cc(NC(=O)Nc2cc(C(=O)Nc3cc(C(=O)Nc4ccc5cc(S(=O)(=O)O)cc(S(=O)(=O)O)c5c4)n(C)c3)n(C)c2)cc1C(=O)Nc1cc(C(=O)Nc2ccc3cc(S(=O)(=O)O)cc(S(=O)(=O)O)c3c2)n(C)c1`, the TGI in the test with SW-620 colon, in the test with M14 melanoma, in the test with U251 CNS, in the test on HCT-116 colon, in the test on UO-31 renal and in the test on SK-MEL-28 melanoma was above 100 µM throughout. In addition, the TGI in the test with SF-295 CNS, in the test with T-47D breast, in the test with HCC-2998 colon, in the test with A549 NSCLC, with OVCAR-5 ovarian and in the test with MOLT-4 leukemia was above 100 µM each time.
Turning to `Nc1nc(Cl)c(N)c(NCC2(CO)CCC(OCc3ccccc3)C2)n1` (stereo not drawn), the TGI in the test with SW-620 colon was above 100 µM; in the test with U251 CNS, above 100 µM; with A498 renal, 81.5 µM; with HCT-116 colon, above 100 µM; in the test with UO-31 renal it was above 100 µM; in the test with SK-MEL-28 melanoma, above 100 µM. Further, the TGI with SF-295 CNS, in the test on T-47D breast, in the test with HCC-2998 colon, with A549 NSCLC, in the test with OVCAR-5 ovarian and in the test on MOLT-4 leukemia was above 100 µM in each case.
As for `CCCCCCCCCCC/C=C(/C(=O)CCCO[Si](C)(C)C(C)(C)C)C(=O)OC`, the TGI in the test on SW-620 colon, in the test on M14 melanoma, with U251 CNS, in the test with A498 renal, in the test on HCT-116 colon and with UO-31 renal was above 100 µM throughout. Besides, the TGI in the test on SK-MEL-28 melanoma, with SF-295 CNS, in the test on T-47D breast, in the test with HCC-2998 colon, in the test with OVCAR-5 ovarian and in the test with MOLT-4 leukemia was above 100 µM each time.
